We go through 11 molecules from patent publication US12540148B2, “Lipophosphonoxins, their preparation and use” (USTAV ORGANICKE CHEMIE A BIOCHEMIE AV CR, V. V. I., priority 2019, dated 2026).

Converted amounts (≈) assume the structure as drawn. Where a name gives a salt, the structure may show the parent alone. Read-outs that look alike come from different tables or passages of the source.

Holding throughout (experiment): MIC, microdilution method
Format in all cases: cell-based
On the technique in general: Broth dilution looks for growth in wells or tubes with falling amounts of substance.

Assay [1] has as its system Enterococcus faecium 419/ANA. The procedure: (§1) Disposable microtiter plates are used for testing. Samples are dissolved in infusion medium from brain and heart (BHI, HiMedia Laboraties Pvt. Ltd., Czech Republic) and Mueller-Hinton broth (HiMedia Laboraties, see above) to a final concentration ranging from 200 μg/ml to 1.5625 μg/ml. Plates are inoculated with a standard amount of test bacteria—the density of the inoculum in the well corresponds to 10^5-6 CFU/ml (colony forming units/ml, i.e. the number of viable bacterial cells/ml). MIC values are read after 24/48 hours of incubation at 37° C. as the minimum inhibitory concentration of the test substance at which bacterial growth is inhibited. The minimum bactericidal concentration (MBC) is characterized as the minimum concentration of the sample required to achieve irreversible inhibition, i.e. to kill the bacteria after a defined incubation period. MBC is determined by the inoculation method. Using an applicator, 10 μl from the well of a microtiter plate with a defined concentration of the test substance is taken to inoculate the surface of blood agar (Trios, Czech Republic). MBC is determined as the lowest concentration that inhibits the visible growth of the bacterium used on agar.

The subject of assay [2] is Enterobacter kobei 3683. The procedure:
as §1

Assay [3] concerns Enterococcus faecalis ATCC 29212 = CCM 4224. The procedure:
as §1

Assay [4] concerns Pseudomonas aeruginosa ATCC 27853 = CCM 3955. The method, then: as §1
Assay [5] has as its system Staphylococcus epidermidis CCM 7221. The method, then:
as §1

Assay [6] concerns Pseudomonas aeruginosa R. The method, then:
as §1

The subject of assay [7] is Staphylococcus aureus ATCC 29213 = CCM 4223. The method, then:
as §1

In assay [8] the test system is Escherichia coli CE5556. The procedure:
as §1

For assay [9], the system named is Escherichia coli ATCC 25922 = CCM 3954. The method, then: as §1
Assay [10] relates to Staphylococcus aureus 4591. The method, then:
as §1

The test system of assay [11] is Candida albicans ATCC 90028 = CCM 8161.
Where [12] appears, read: Staphylococcus epidermidis, CCM7221.
Where [13] appears, read: Escherichia coli, 24/48 hours at 37° C.
Where [14] appears, read: Pseudomonas aeruginosa, 24/48 hours at 37° C., read-out: MIC.

With `CCCCOP(=O)(CCN(CCCN)CCCN)OCCCCCCCCCCOP(=O)(CCN(CCCN)CCCN)OCCCC.Cl.Cl.Cl.Cl.Cl.Cl` (stereo not shown) [Example 41, Dibutyl decane-1,10-diyl bis((2-(bis(3-aminopropyl)amino)ethyl)phosphonate) hexahydrochloride], the MIC is 128 µg/mL in assay [1] (Enterococcus faecium, 419/ANA); over 128 µg/mL in assay [2] (Enterobacter kobei, 3683); 32 µg/mL in assay [3] (Enterococcus faecalis); 16 µg/mL in assay [4] (Pseudomonas aeruginosa); 1 µg/mL in [5] (setting [12]); 8 µg/mL in assay [6] (Pseudomonas aeruginosa). Further, the MIC in [7] (Staphylococcus aureus) came to 2 µg/mL; in assay [8] (Escherichia coli, CE5556), 128 µg/mL; in [9] (setting [13]), 64 µg/mL; in assay [10] (Staphylococcus aureus, 4591), 2 µg/mL; in [11] (Candida albicans), 64 µg/mL.

`CCCCCOP(=O)(CCN(CCCN)CCCN)OCCCCCCCCOP(=O)(CCN(CCCN)CCCN)OCCCCC.Cl.Cl.Cl.Cl.Cl.Cl` (stereo not shown) [Example 37, Octane-1,8-diyl dipentyl bis((2-(bis(3-aminopropyl)amino)-ethyl)phosphonate) hexahydrochloride]: the MIC in assay [1] (Enterococcus faecium, 419/ANA) was over 128 µg/mL; in assay [2] (Enterobacter kobei, 3683) it was over 128 µg/mL; in assay [3] (Enterococcus faecalis), 16 µg/mL; in [4] (Pseudomonas aeruginosa), 16 µg/mL; in [5] (setting [12]), 0.5 µg/mL; in [6] (Pseudomonas aeruginosa), 64 µg/mL. In addition, the MIC in [7] (4% BSA) worked out at 1 µg/mL; in [7] (24/48 hours at 37° C.) it was 1 µg/mL; in [7] (Staphylococcus aureus), 1 µg/mL; in assay [8] (Escherichia coli, CE5556), 8 µg/mL; in [9] (Escherichia coli, 0% BSA), 2 µg/mL; in assay [9] (Escherichia coli, 4% BSA) it was 4 µg/mL. For the same molecule, the MIC in [9] (setting [13]) was 2 µg/mL; in assay [10] (Staphylococcus aureus, 4591), 2 µg/mL; in assay [11] (Candida albicans), 32 µg/mL.

For “Hexan-1,8-diyl dihexyl bis((2-(bis(3-aminopropyl)amino)ethyl)phosphonate) hexahydrochloride [Example 35]”, the MIC in assay [1] (24/48 hours at 37° C.) came out at 8 µg/mL; in assay [2] (24/48 hours at 37° C.), 2 µg/mL; in [3] (24/48 hours at 37° C.), 1 µg/mL; in assay [4] (24/48 hours at 37° C.), 2 µg/mL; in [5] (24/48 hours at 37° C.) it was 0.5 µg/mL; in assay [6] (24/48 hours at 37° C.) it was 2 µg/mL. Besides, the MIC was 0.5 µg/mL in [7] (24/48 hours at 37° C.); 1 µg/mL in assay [8] (24/48 hours at 37° C.); 0.5 µg/mL in [9] (24/48 hours at 37° C.); 1 µg/mL in assay [10] (24/48 hours at 37° C.); 16 µg/mL in [11] (24/48 hours at 37° C.).

As for `CCCCCOP(=O)(CCN(CCCN)CCCN)OCCCCCCCCCCCCCCOP(=O)(CCN(CCCN)CCCN)OCCCCC.Cl.Cl.Cl.Cl.Cl.Cl` (stereo not shown) [Example 53, Tetradecane-1,14-diyl dipentyl bis((2-(bis(3-aminopropyl)amino)ethyl)-phosphonate) hexahydrochloride], the MIC in [1] (Enterococcus faecium, 419/ANA) turned out to be 2 µg/mL; in assay [2] (Enterobacter kobei, 3683) it was 2 µg/mL; in assay [3] (Enterococcus faecalis) it was 1 µg/mL; in [4] (Pseudomonas aeruginosa), 2 µg/mL; in assay [5] (setting [12]), 0.5 µg/mL; in [6] (Pseudomonas aeruginosa) it was 4 µg/mL. Moreover, the MIC came to 0.5 µg/mL in assay [7] (Staphylococcus aureus); 1 µg/mL in [8] (Escherichia coli, CE5556); 1 µg/mL in [9] (setting [13]); 1 µg/mL in [10] (Staphylococcus aureus, 4591); 2 µg/mL in [11] (Candida albicans).

With `CCCCOP(=O)(CCN(CCCN)CCCN)OCCCCCCCCCCCCCCOP(=O)(CCN(CCCN)CCCN)OCCCC.Cl.Cl.Cl.Cl.Cl.Cl` (stereo not shown) [Example 52, Dibutyl tetradecane-1,14-diyl bis((2-(bis(3-aminopropyl)amino)ethyl)phosphonate) hexahydrochloride], the MIC came to 2 µg/mL in [1] (Enterococcus faecium, 419/ANA); 8 µg/mL in assay [2] (Enterobacter kobei, 3683); 1 µg/mL in assay [3] (Enterococcus faecalis); 4 µg/mL in assay [4] (Pseudomonas aeruginosa); 0.5 µg/mL in [5] (setting [12]); 2 µg/mL in assay [6] (Pseudomonas aeruginosa). For the same molecule, the MIC in assay [7] (Staphylococcus aureus) is 1 µg/mL; in [8] (Escherichia coli, CE5556), 2 µg/mL; in assay [9] (setting [13]), 2 µg/mL; in assay [10] (Staphylococcus aureus, 4591), 1 µg/mL; in assay [11] (Candida albicans), 4 µg/mL.

Regarding `C=CP(=O)(OCCCCCCCCCCCCOP(=O)(C=C)OCC(C)C)OCC(C)C` (stereo not shown) [Example 34, Diisobutyl dodecane-1,12-diyl bis(vinylphosphonate)], the MIC was over 128 µg/mL in assay [1] (Enterococcus faecium, 419/ANA, 24/48 hours at 37° C., read-out: MIC); over 128 µg/mL in assay [2] (Enterobacter kobei, 3683, 24/48 hours at 37° C., read-out: MIC); 128 µg/mL (≈ 259 µM) in assay [3] (Enterococcus faecalis, 24/48 hours at 37° C., read-out: MIC); over 128 µg/mL in assay [4] (setting [14]); 4 µg/mL (≈ 8.09 µM) in assay [5] (Staphylococcus epidermidis, CCM7221, 24/48 hours at 37° C., read-out: MIC); over 128 µg/mL in [6] (setting [14]). Moreover, the MIC in assay [7] (Staphylococcus aureus, 24/48 hours at 37° C., read-out: MIC) was 8 µg/mL (≈ 16.2 µM); in [8] (Escherichia coli, CE5556, 24/48 hours at 37° C., read-out: MIC) it was 128 µg/mL (≈ 259 µM); in [9] (Escherichia coli, 24/48 hours at 37° C., read-out: MIC), 32 µg/mL (≈ 64.7 µM); in assay [10] (Staphylococcus aureus, 4591, 24/48 hours at 37° C., read-out: MIC) it was 16 µg/mL (≈ 32.4 µM); in assay [11] (Candida albicans, 24/48 hours at 37° C., read-out: MIC) it was 128 µg/mL (≈ 259 µM).

As to `CCCCCCCCCCOP(=O)(CCN(CCCN)CCCN)OCCCCCCCCCCOP(=O)(CCN(CCCN)CCCN)OCCCCCCCCCC` (stereo not shown) [Example 45, Decan-1,10-diyl didecyl bis((2-(bis(3-aminopropyl)amino)ethyl)-phosphonate) tetrahydrochloride], the MIC is 128 µg/mL in [1] (Enterococcus faecium, 419/ANA); over 128 µg/mL in assay [2] (Enterobacter kobei, 3683); 32 µg/mL in assay [3] (Enterococcus faecalis); 32 µg/mL in [4] (Pseudomonas aeruginosa); 1 µg/mL in [5] (setting [12]); 16 µg/mL in assay [6] (Pseudomonas aeruginosa). For the same molecule, the MIC is 4 µg/mL in [7] (Staphylococcus aureus); over 128 µg/mL in assay [8] (Escherichia coli, CE5556); over 128 µg/mL in assay [9] (Escherichia coli); 4 µg/mL in [10] (Staphylococcus aureus, 4591); 64 µg/mL in assay [11] (Candida albicans).

Turning to `CCCCCCOP(=O)(CCN(CCCN)CCCN)OCCCCCCCCCCOP(=O)(CCN(CCCN)CCCN)OCCCCCC.Cl.Cl.Cl.Cl` (stereo not shown) [Example 43, Decane-1,10-diyl dihexyl bis((2-(bis(3-aminopropyl)amino)-ethyl)phosphonate) tetrahydrochloride], the MIC came to 1 µg/mL in assay [1] (Enterococcus faecium, 419/ANA); 1 µg/mL in [2] (Enterobacter kobei, 3683); 0.5 µg/mL in [3] (Enterococcus faecalis); 1 µg/mL in assay [4] (Pseudomonas aeruginosa); 0.5 µg/mL in assay [5] (setting [12]); 1 µg/mL in [6] (Pseudomonas aeruginosa). The MIC was found to be 0.5 µg/mL in assay [7] (Staphylococcus aureus); 1 µg/mL in assay [8] (Escherichia coli, CE5556); 0.5 µg/mL in assay [9] (setting [13]); 0.5 µg/mL in [10] (Staphylococcus aureus, 4591); 1 µg/mL in [11] (Candida albicans).

`CCCCOP(=O)(CCN(CCN)CCN)OCCCCCCCCCCOP(=O)(CCN(CCN)CCN)OCCCC.Cl.Cl.Cl.Cl.Cl.Cl` (stereo not shown) [Example 56, Dibutyl decane-1,10-diyl bis((2-(bis(2-aminoethyl)amino)ethyl)phosphonate) hexahydrochloride]: the MIC is 4 µg/mL in [1] (Enterococcus faecium, 419/ANA); 16 µg/mL in assay [2] (Enterobacter kobei, 3683); 2 µg/mL in assay [3] (Enterococcus faecalis); 4 µg/mL in assay [4] (Pseudomonas aeruginosa); 4 µg/mL in [5] (setting [12]); 8 µg/mL in assay [6] (Pseudomonas aeruginosa). Also, the MIC was found to be 2 µg/mL in [7] (Staphylococcus aureus); 4 µg/mL in assay [8] (Escherichia coli, CE5556); 4 µg/mL in assay [9] (setting [13]); 4 µg/mL in assay [10] (Staphylococcus aureus, 4591); 4 µg/mL in assay [11] (Candida albicans).

Take `CCCCCOP(=O)(CCN(CCCN)CCCN)OCCCCCCCCCCOP(=O)(CCN(CCCN)CCCN)OCCCCC.Cl.Cl.Cl.Cl.Cl.Cl` (stereo not shown) [Example 42, Decane-1,10-diyl dipentyl bis((2-(bis(3-aminopropyl)amino)-ethyl)phosphonate) hexahydrochloride]: the MIC in assay [1] (Enterococcus faecium, 419/ANA) came to 32 µg/mL; in [2] (Enterobacter kobei, 3683), 64 µg/mL; in [3] (Enterococcus faecalis), 4 µg/mL; in assay [4] (Pseudomonas aeruginosa) it was 4 µg/mL; in [5] (setting [12]), 0.5 µg/mL; in assay [6] (Pseudomonas aeruginosa) it was 8 µg/mL. Moreover, the MIC in assay [7] (Staphylococcus aureus) was 0.5 µg/mL; in assay [8] (Escherichia coli, CE5556), 8 µg/mL; in assay [9] (setting [13]), 2 µg/mL; in assay [10] (Staphylococcus aureus, 4591), 1 µg/mL; in assay [11] (Candida albicans), 16 µg/mL.

As for `CCCCCCCCCCCCCCOP(=O)(CCN(CCCNC(=N)N)CCCNC(=N)N)OC[C@H]1O[C@@H](n2ccc(=O)[nH]c2=O)C(O)C1O` (stereo partly shown) [DR7030, reference compound], the MIC in [7] (Staphylococcus aureus, 0% BSA, read-out: MIC) was 2 µg/mL (≈ 2.68 µM); in assay [7] (Staphylococcus aureus, 4% BSA, read-out: MIC), over 200 µg/mL; in assay [9] (Escherichia coli, 0% BSA, read-out: MIC) it was 2 µg/mL (≈ 2.68 µM); in assay [9] (Escherichia coli, 4% BSA, read-out: MIC), over 200 µg/mL.

For orientation: MIC means the least concentration at which growth counts as inhibited.
